Test [1] addresses T1, aSyn aggregates on PD sections (Homo sapiens, UniProt P37840).
T1 construct: 20 μm frozen sections from amygdala were purchased from an external provider (Tissue Solutions Ltd.); tissue Tissue Solutions Ltd; host or cells: human PD amygdala, frozen sections, Braak stage V-VI
Put plainly: Assay 1 (fluorescence based assay): direct staining of human Parkinson's disease brain sections. Set-up: key: − (No); +/− (very weak); + (weak); ++ (good); +++ (strong). The following applies: staining intensity; compound 100 μM, frozen amygdala sections, PD Braak stage V-VI. The test is classed as binding. From the text:
Assay 1 (Fluorescence Based Assay):
(§1) Direct Staining of Compounds of this Invention to Human Parkinson's Disease Brain Sections
(§2) 20 μm frozen sections from amygdala were purchased from an external provider (Tissue Solutions Ltd.). Donors were diagnosed with PD, Braak stage V-VI (Braak et al., Neurobiol. Aging, 2003, 24, 197-211) and thus with confirmed aSyn pathology. PD donors, Braak stage V-VI with mixed pathology, containing aSyn aggregates as well as Aβ plaques, were also used in this assay. Sections were kept at −80° C. until start of the experiment.
(§3) Brain sections were encircled with pap pen liquid blocker to reduce the volume of solution for the different incubations. Sections were fixed for 15 min at 4° C. with 4% paraformaldehyde and washed three times for 5 minutes with PBS (phosphate buffered saline) at room temperature. Test compounds were incubated on the sections at 100 μM in 50% ethanol in water for 30 min at room temperature, followed by three washes of 5 minutes with PBS. Sections were then saturated and permeabilized in blocking buffer (PBS, 10% NGS, 0.25% Triton) for 1 hour at room temperature and then incubated for 2 hours at room temperature with the primary antibodies against aSyn: aSyn-211 (SantaCruz Biotechnology sc-12767) or aSyn-pS129 (Abcam AB51253), and primary antibody against AR, 4G8, (Covance, SIG-39220). All primary antibodies diluted 1/250 in PBS, 5% NGS, 0.25% Triton. After three washes in PBS, the sections were incubated for 30 minutes at room temperature with a secondary anti-mouse antibody labeled with AlexaFluor555 (Invitrogen A21422) or anti-rabbit antibody labeled with AlexaFluor555 (Invitrogen A21428) and further washed three times in PBS. To reduce auto-fluorescence of the tissue, the sections were incubated in a solution of 0.1% Sudan Black (Sigma 199664) in 70% ethanol for 15 min at room temperature, followed by four washes with PBS and mounted under cover slips using ProLong Gold Antifade reagent (Invitrogen P36930).
(§4) Sections were analyzed on the Nikon Eclipse Ti microscope to detect staining and imaged using Nikon DS-Fi2 camera and NIS-Element AR4.13.1 software.

For test [2], the system named is Aβ plaques on PD sections with mixed pathology. Put plainly: Assay 1 (fluorescence based assay): direct staining of PD brain sections with mixed pathology. The following applies: staining intensity; compound 100 μM, frozen amygdala sections, PD Braak stage V-VI with aSyn aggregates and Aβ plaques. It counts as binding, human. Set-up: key: − (No); +/− (very weak); + (weak); ++ (good); +++ (strong). The protocol: as §1, §2, §3, §4

On to `F[C@H]1CCCN(c2ccc(-c3nc4nc(-c5cn[nH]c5)ccc4s3)cn2)C1` [Example 83], for which the “Staining of aSyn aggregates on PD sections” value (“Staining of aSyn aggregates” for short) in test [1] is given as “+++”. Further, the “Staining of Aβ plaques on PD sections with mixed pathology” value (from here on “Staining … with mixed pathology”) in test [2] is recorded as “−”.
Consider `F[C@H]1CCCN(c2ccc(-c3nc4nc(-c5cncs5)ccc4s3)cn2)C1` [Example 98], for which the “Staining of aSyn aggregates” value in test [1] is listed as “+”. The “Staining … with mixed pathology” value in test [2] is listed as “+/−”.
For the compound `Nc1ccc(-c2cc3ccc(-c4ccc(F)nc4)nc3s2)cn1` [Example 105], in test [1], the “Staining of aSyn aggregates” value is listed as “+++”. For the same compound, the “Staining … with mixed pathology” value in test [2] was “++”.
Regarding `Cn1cc(-c2ccc3sc(-c4ccc(N5CCC[C@H](F)C5)nc4)nc3n2)cn1` [Example 84], in test [1], the “Staining of aSyn aggregates” value is reported as “++”. Moreover, the “Staining … with mixed pathology” value in test [2] was “+/−”.
Regarding `N#Cc1ccc2sc(-c3ccc(N4CCCC4)nc3F)nc2n1` [Example 131], in test [1], the “Staining of aSyn aggregates” value was “++”. Moreover, the “Staining … with mixed pathology” value in test [2] is on record as “+++”.
Take `Cn1nccc1-c1ccc2sc(-c3ccc(N4CCCC4)nc3F)nc2n1` [Example 97]: the “Staining of aSyn aggregates” value in test [1] is “+”. Also, the “Staining … with mixed pathology” value in test [2] is listed as “+/−”.
With `F[C@@H]1CCN(c2ccc(-c3nc4nc(-c5cccnc5)ccc4s3)cn2)C1` [Example 90], the “Staining of aSyn aggregates” value in test [1] was “++”. The “Staining … with mixed pathology” value in test [2] was “−”.
The corresponding values for `CNc1ccc(-c2cc3ccc(-c4ccc(N5CC[C@@H](F)C5)nc4)nc3s2)cc1F` [Example 111] are “+++” and “+++”.
`F[C@H]1CCN(c2ccc(-c3nc4nc(-c5cccnc5)ccc4s3)cn2)C1` [Example 91]: in test [1], the “Staining of aSyn aggregates” value is given as “++”. Also, the “Staining … with mixed pathology” value in test [2] is “−”.
As to `Fc1ncccc1-c1ccc2sc(-c3ccc(N4CCCC4)nc3)nc2n1` [Example 108], the “Staining of aSyn aggregates” value in test [1] is “++”. In test [2], the “Staining … with mixed pathology” value was “+/−”.
On to `F[C@@H]1CCCN(c2ccc(-c3nc4nc(-c5cncs5)ccc4s3)cn2)C1` [Example 99], for which, in test [1], the “Staining of aSyn aggregates” value is “++”. The “Staining … with mixed pathology” value in test [2] was “+/−”.
Turning to `O=C1c2sc(-c3ccc(N4CC[C@H](F)C4)nc3)nc2CCN1c1cccnc1` [Example 130], the “Staining of aSyn aggregates” value in test [1] is recorded as “++”. Besides, in test [2], the “Staining … with mixed pathology” value is “+++”.
`Fc1nc(N2CCCC2)ccc1-c1nc2nc(-c3cc[nH]c3)ccc2s1` [Example 96]: the “Staining of aSyn aggregates” value in test [1] is recorded as “++”. In test [2], the “Staining … with mixed pathology” value is on record as “+/−”.
In the case of `Cn1cc(-c2ccc3sc(-c4ccc(N5CCCC5)nc4F)nc3n2)cn1` [Example 86], the “Staining of aSyn aggregates” value in test [1] is reported as “++”. Besides, the “Staining … with mixed pathology” value in test [2] is recorded as “−”.
For the compound `O=C1CN(CCF)CCN1c1ccc2nc(-c3ccc(N4CCCC4)nc3)sc2c1` [Example 128], the “Staining of aSyn aggregates” value in test [1] was “++”. Besides, the “Staining … with mixed pathology” value in test [2] was “++”.
Turning to `O=C1COCCN1c1ccc2nc(-c3cnn(CCF)c3)sc2c1` [Example 125], the “Staining of aSyn aggregates” value in test [1] is listed as “+”. Besides, in test [2], the “Staining … with mixed pathology” value is reported as “+”.
On to `CNc1ccc(-c2cc3ccc(-c4ccc(F)nc4)nc3s2)cc1F` [Example 106], for which the “Staining of aSyn aggregates” value in test [1] is “+++”. For the same compound, the “Staining … with mixed pathology” value in test [2] is on record as “+++”.
Turning to `Fc1nc(N2CCCC2)ccc1-c1nc2nc(-c3cnc[nH]3)ccc2s1` [Example 95], the “Staining of aSyn aggregates” value in test [1] is “++”. In addition, the “Staining … with mixed pathology” value in test [2] is “−”.
For the compound `Fc1ccc(-c2ccc3sc(-c4ccc(N5CCCC5)nc4)nc3n2)cn1` [Example 109], in test [1], the “Staining of aSyn aggregates” value is “++”. The “Staining … with mixed pathology” value in test [2] is “+/−”.
With `Fc1nc(N2CCCC2)ccc1-c1nc2nc(-c3cccnc3)ccc2s1` [Example 87], in test [1], the “Staining of aSyn aggregates” value is listed as “++”. The “Staining … with mixed pathology” value in test [2] was “−”.
Take `CNc1ccc(-c2cc3ccc(-c4ccc(N5CC[C@H](F)C5)nc4)nc3s2)cc1F` [Example 113]: the “Staining of aSyn aggregates” value in test [1] is “+”. In addition, the “Staining … with mixed pathology” value in test [2] is recorded as “++”.
The corresponding values for `c1cncc(-c2ccc3sc(-c4ccc(N5CCCC5)nc4)nc3n2)c1` [Example 89] are “++” and “−”.
The corresponding values for `F[C@H]1CCN(c2ccc(-c3ccc4cc(-c5cccnc5)sc4n3)cn2)C1` [Example 112] are “+” and “++”.
For the compound `F[C@@H]1CCCN(c2ccc(-c3nc4ncc(-c5cccnc5)cc4s3)cn2)C1` [Example 100], in test [1], the “Staining of aSyn aggregates” value is “++”. Further, the “Staining … with mixed pathology” value in test [2] is “++”.
For `F[C@H]1CCCN(c2ccc(-c3nc4nc(-n5ccnc5)ccc4s3)cn2)C1` [Example 132], the “Staining of aSyn aggregates” value in test [1] is recorded as “++”. In test [2], the “Staining … with mixed pathology” value was “+/−”.
The corresponding values for `O=C1NCCc2nc(-c3ccc(N4CC[C@H](F)C4)nc3)sc21` [Example 118] are “+” and “+”.
Take `F[C@@H]1CCCN(c2ccc(-c3nc4ncc(N5CCOCC5)cc4s3)cn2)C1` [Example 123]: the “Staining of aSyn aggregates” value in test [1] is given as “+”. In test [2], the “Staining … with mixed pathology” value is “+”.
As to `F[C@@H]1CCN(c2ccc(-c3ccc4cc(-c5cn[nH]c5)sc4n3)cn2)C1` [Example 114], the “Staining of aSyn aggregates” value in test [1] was “+++”. The “Staining … with mixed pathology” value in test [2] is on record as “+++”.
Regarding `Fc1nc(N2CCCC2)ccc1-c1nc2nc(-c3cn[nH]c3)ccc2s1` [Example 85], in test [1], the “Staining of aSyn aggregates” value is listed as “+++”. In test [2], the “Staining … with mixed pathology” value was “−”.

The values are drawn from patent publication US11623931B2, “Bicyclic compounds for diagnosis and therapy” (AC IMMUNE SA, priority 2016, dated 2023).
